Test results reported in US20040097737A1 (priority 2001, published 2004).

System: patients diagnosed as acute attack of vertigo
Conditions: human, in vivo

`OC(CCCN1CCCCC1)(c1ccccc1)c1ccccc1` [Diphenidol] was tested, and the “Total effective (patients effective/sample)” value was 19/28 and the Total effective percentage was 67.9%.
